Test results as given in PubChem BioAssay (NCI).
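Abbreviation: GI50, concentration required for 50% inhibition of growth. TGI is the concentration that stops growth completely.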

Experiments:
Assay in all cases: growth of human tumour cells (NCI), 384-well format
786-0 renal = test system: 786-0 renal
A498 renal = test system: A498 renal
A549 NSCLC = test system: A549 NSCLC
ACHN renal = test system: ACHN renal
BT-549 breast = test system: BT-549 breast
CAKI-1 renal = test system: CAKI-1 renal
CCRF-CEM leukemia = test system: CCRF-CEM leukemia
COLO 205 colon = test system: COLO 205 colon
DU-145 prostate = test system: DU-145 prostate
EKVX NSCLC = test system: EKVX NSCLC
HCT-116 colon = test system: HCT-116 colon
HCT-15 colon = test system: HCT-15 colon
HL-60(TB) leukemia = test system: HL-60(TB) leukemia
HOP-62 NSCLC = test system: HOP-62 NSCLC
HOP-92 NSCLC = test system: HOP-92 NSCLC
HS 578T breast = test system: HS 578T breast
HT29 colon = test system: HT29 colon
IGROV1 ovarian = test system: IGROV1 ovarian
K-562 leukemia = test system: K-562 leukemia
KM12 colon = test system: KM12 colon
LOX IMVI melanoma = test system: LOX IMVI melanoma
M14 melanoma = test system: M14 melanoma
MALME-3M melanoma = test system: MALME-3M melanoma
MCF7 breast = test system: MCF7 breast
MDA-MB-231 breast = test system: MDA-MB-231 breast
MDA-MB-435 melanoma = test system: MDA-MB-435 melanoma
MDA-MB-468 breast = test system: MDA-MB-468 breast
MOLT-4 leukemia = test system: MOLT-4 leukemia
NCI-H226 lung = test system: NCI-H226 lung
NCI-H23 lung = test system: NCI-H23 lung
NCI-H322M lung = test system: NCI-H322M lung
NCI-H460 NSCLC = test system: NCI-H460 NSCLC
NCI-H522 lung = test system: NCI-H522 lung
NCI/ADR-RES ovarian = test system: NCI/ADR-RES ovarian
OVCAR-3 ovarian = test system: OVCAR-3 ovarian
OVCAR-4 ovarian = test system: OVCAR-4 ovarian
OVCAR-5 ovarian = test system: OVCAR-5 ovarian
PC-3 prostate = test system: PC-3 prostate
RPMI-8226 leukemia = test system: RPMI-8226 leukemia
RXF 393 renal = test system: RXF 393 renal
SF-268 CNS = test system: SF-268 CNS
SF-295 CNS = test system: SF-295 CNS
SF-539 CNS = test system: SF-539 CNS
SK-MEL-2 melanoma = test system: SK-MEL-2 melanoma
SK-MEL-28 melanoma = test system: SK-MEL-28 melanoma
SK-MEL-5 melanoma = test system: SK-MEL-5 melanoma
SK-OV-3 ovarian = test system: SK-OV-3 ovarian
SN12C renal = test system: SN12C renal
SNB-19 CNS = test system: SNB-19 CNS
SNB-75 CNS = test system: SNB-75 CNS
SR leukemia = test system: SR leukemia
SW-620 colon = test system: SW-620 colon
T-47D breast = test system: T-47D breast
TK-10 renal = test system: TK-10 renal
U251 glioblastoma = test system: U251 glioblastoma
UACC-257 melanoma = test system: UACC-257 melanoma
UACC-62 melanoma = test system: UACC-62 melanoma
UO-31 renal = test system: UO-31 renal

In the case of `C[C@@H](Oc1ccc(Oc2cnc3ccc(Cl)cc3n2)cc1)C(=O)O`, the GI50 ([…]-0 renal) is reported as > 100 µM, the TGI (786-0 renal) is reported as > 100 µM and the GI50 (A498 renal) is reported as 86.9 µM. For the same compound, the TGI (A498 renal) was > 100 µM, the GI50 (A549 NSCLC) was 42.6 µM and the TGI (A549 NSCLC) was > 100 µM. For the same compound, the GI50 (ACHN renal) was 32.1 µM, the TGI (ACHN renal) was > 100 µM and the GI50 (BT-549 breast) was 58.3 µM. The TGI (BT-549 breast) was > 100 µM, the GI50 (CAKI-1 renal) was 85.3 µM and the TGI (CAKI-1 renal) was > 100 µM. The GI50 (CCRF-CEM leukemia) was 3.68 µM, the TGI (CCRF-CEM leukemia) was > 100 µM and the GI50 (COLO 205 colon) was 28.6 µM. For the same compound, the TGI (COLO 205 colon) was > 100 µM, the GI50 (DU-145 prostate) was 45.4 µM and the TGI (DU-145 prostate) was > 100 µM. For the same compound, the GI50 (EKVX NSCLC) was > 100 µM, the TGI (EKVX NSCLC) was > 100 µM and the GI50 (HCT-116 colon) was 77.4 µM. For the same compound, the TGI (HCT-116 colon) was > 100 µM, the GI50 (HCT-15 colon) was 73.7 µM and the TGI (HCT-15 colon) was > 100 µM. It also gave a GI50 (HL-60(TB) leukemia) of 4.5 µM, a TGI (HL-60(TB) leukemia) of 26.1 µM and a GI50 (HOP-62 NSCLC) of 43.3 µM. The TGI (HOP-62 NSCLC) was > 100 µM, the GI50 (HOP-92 NSCLC) was 96.4 µM and the TGI (HOP-92 NSCLC) was > 100 µM. For the same compound, the GI50 (HS 578T breast) was > 100 µM, the TGI (HS 578T breast) was > 100 µM and the GI50 (HT29 colon) was > 100 µM. For the same compound, the TGI (HT29 colon) was > 100 µM, the GI50 (IGROV1 ovarian) was 73.1 µM and the TGI (IGROV1 ovarian) was > 100 µM. The GI50 (K-562 leukemia) was 53.3 µM, the TGI (K-562 leukemia) was > 100 µM and the GI50 (KM12 colon) was > 100 µM. For the same compound, the TGI (KM12 colon) was > 100 µM, the GI50 (LOX IMVI melanoma) was > 100 µM and the TGI (LOX IMVI melanoma) was > 100 µM. For the same compound, the GI50 (M14 melanoma) was > 100 µM, the TGI (M14 melanoma) was > 100 µM and the GI50 (MALME-3M melanoma) was > 100 µM. For the same compound, the TGI (MALME-3M melanoma) was > 100 µM, the GI50 (MCF7 breast) was 22.5 µM and the TGI (MCF7 breast) was > 100 µM. The GI50 (MDA-MB-231 breast) was > 100 µM, the TGI (MDA-MB-231 breast) was > 100 µM and the GI50 (MDA-MB-435 melanoma) was > 100 µM. The TGI (MDA-MB-435 melanoma) was > 100 µM, the GI50 (MDA-MB-468 breast) was 24.8 µM and the TGI (MDA-MB-468 breast) was > 100 µM. The GI50 (MOLT-4 leukemia) was 1.46 µM, the TGI (MOLT-4 leukemia) was 2.82 µM and the GI50 (NCI-H226 lung) was > 100 µM. The TGI (NCI-H226 lung) was > 100 µM, the GI50 (NCI-H23 lung) was > 100 µM and the TGI (NCI-H23 lung) was > 100 µM. For the same compound, the GI50 (NCI-H322M lung) was > 100 µM, the TGI (NCI-H322M lung) was > 100 µM and the GI50 (NCI-H460 NSCLC) was 6.16 µM. For the same compound, the TGI (NCI-H460 NSCLC) was > 100 µM, the GI50 (NCI-H522 lung) was 25.9 µM and the TGI (NCI-H522 lung) was > 100 µM. The GI50 (NCI/ADR-RES ovarian) was 78.3 µM, the TGI (NCI/ADR-RES ovarian) was > 100 µM and the GI50 (OVCAR-3 ovarian) was > 100 µM. The TGI (OVCAR-3 ovarian) was > 100 µM, the GI50 (OVCAR-4 ovarian) was > 100 µM and the TGI (OVCAR-4 ovarian) was > 100 µM. The GI50 (OVCAR-5 ovarian) was > 100 µM, the TGI (OVCAR-5 ovarian) was > 100 µM and the GI50 (PC-3 prostate) was > 100 µM. For the same compound, the TGI (PC-3 prostate) was > 100 µM, the GI50 (RPMI-8226 leukemia) was > 100 µM and the TGI (RPMI-8226 leukemia) was > 100 µM. For the same compound, the GI50 (RXF 393 renal) was 97.5 µM, the TGI (RXF 393 renal) was > 100 µM and the GI50 (SF-268 CNS) was > 100 µM. For the same compound, the TGI (SF-268 CNS) was > 100 µM, the GI50 (SF-295 CNS) was 33.2 µM and the TGI (SF-295 CNS) was > 100 µM. The GI50 (SF-539 CNS) was 97.1 µM, the TGI (SF-539 CNS) was > 100 µM and the GI50 (SK-MEL-2 melanoma) was > 100 µM. For the same compound, the TGI (SK-MEL-2 melanoma) was > 100 µM, the GI50 (SK-MEL-28 melanoma) was > 100 µM and the TGI (SK-MEL-28 melanoma) was > 100 µM. For the same compound, the GI50 (SK-MEL-5 melanoma) was 62.5 µM, the TGI (SK-MEL-5 melanoma) was > 100 µM and the GI50 (SK-OV-3 ovarian) was > 100 µM. The TGI (SK-OV-3 ovarian) was > 100 µM, the GI50 (SN12C renal) was > 100 µM and the TGI (SN12C renal) was > 100 µM. For the same compound, the GI50 (SNB-19 CNS) was > 100 µM, the TGI (SNB-19 CNS) was > 100 µM and the GI50 (SNB-75 CNS) was > 100 µM. The TGI (SNB-75 CNS) was > 100 µM, the GI50 (SR leukemia) was 1.71 µM and the TGI (SR leukemia) was 4.65 µM. For the same compound, the GI50 (SW-620 colon) was 43.4 µM, the TGI (SW-620 colon) was > 100 µM and the GI50 (T-47D breast) was > 100 µM. For the same compound, the TGI (T-47D breast) was > 100 µM, the GI50 (TK-10 renal) was 61.4 µM and the TGI (TK-10 renal) was > 100 µM. For the same compound, the GI50 (U251 glioblastoma) was 63.9 µM, the TGI (U251 glioblastoma) was > 100 µM and the GI50 (UACC-257 melanoma) was > 100 µM. The TGI (UACC-257 melanoma) was > 100 µM, the GI50 (UACC-62 melanoma) was 36.5 µM and the TGI (UACC-62 melanoma) was > 100 µM. The GI50 (UO-31 renal) was 87.1 µM and the TGI (UO-31 renal) was > 100 µM.
